Test results as given in US20250000855A1, “USE OF APOMORPHINE AS THERAPEUTIC AGENT FOR NECROPTOSIS-RELATED DISEASES” (INDUSTRY-ACADEMIC COOPERATION FOUNDATION, YONSEI UNIVERSITY, priority 2021, published 2025).

Legend:
[1] = system: MLKL translocation in transfected THP-1 cells; test: Flag-MLKL translocation to cell membrane, immunofluorescent staining, confocal microscopy; assay type: cell-based, human; conditions: transfected THP-1 cells stimulated with compound and TBZ, FIG. 3
Description: A human monocyte cell line THP-1 and a human colon cancer cell line HT-29 were maintained in a 10% FBS-Roswell Park Memorial Institute (RPMI) 1640 medium supplemented with 2 mM L-glutamine, 100 U/ml penicillin, and 100 μg/ml streptomycin at 37° C. under a 5% CO2 condition. The THP-1 cells were differentiated into macrophages in an RPMI 1640 medium containing 500 nM Phorbol 12-myristate 13-acetate (PMA) for 3 hours. Human mixed lineage kinase domain-like protein (MLKL)-flag plasmid (Sino Biological, HG12810-CF) transfection was performed using the electroporation system (Invitrogen) of MicroPorator-mini (Digital Bio).
Cells were seeded on cell culture-treated glass chamber slides. The cells were pretreated with Z-VAD, BV6, and the indicated compound for 1 hour, and then treated with TNF-α and BV6 overnight. Subsequently, the cells were washed with phosphate-buffered saline (PBS) and fixed in 4% paraformaldehyde for 10 minutes. Before incubation for 10 minutes in 0.25% Triton X-100 in PBS, the cells were washed three more times with PBS. The cells were blocked with 5% bovine serum albumin (BSA) in PBS for 30 minutes and stained using an anti-Flag (Sigma, F7425-2MG) antibody. The nuclei were stained with DAPI (Invitrogen, 00-4959-52). Images were captured using a confocal microscope (Olympus, FV1000). […]

MLKL oligomerization = MLKL oligomerization (tetramer and octamer bands) by non-reducing or reducing SDS-PAGE; assay type: cell-based, human; conditions: cytoplasmic and membrane fractions, necroptosis induced with TBZ, FIG. 2 / FIG. 6A
Description: Cells were pretreated with Z-VAD (invivoGen, tlrl-vad) and a compound for 1 hour, and necroptosis was induced with TNF-α (ATGen, TNF0501) and BV6 (Biovision, B1332-5) for the indicated time. The prepared cells were appropriately treated according to analysis (Z-VAD: carbobenzoxy-valyl-alanyl-aspartyl, TNF-α: tumor necrosis factor-α, BV6: 4,4′-(1,6-hexanediyl)bis[N-methyl-L-alanyl-(2S)-2-cyclohexylglycyl-L-prolyl-β-phenyl-L-phenylalaninamide)
Cells were treated with a drug candidate and then collected using centrifugation at 4° C. and 1,500×g for 5 minutes. A supernatant was centrifuged again at 4° C. and 1,500×g for 5 minutes to remove remaining debris, concentrated at 4° C. and 14,000×g for 30 minutes using Amicon ultra-0.5 centrifugal filter unit 10K (Millipore, UFC501096), and stored. […] The extracted protein concentration was measured using a bicinchoninic acid (BCA) protein assay kit (Thermo Fisher Scientific, 23225). […]
To test whether the tetramer and octamer formation of p-MLKL for pore formation in the cell membrane is inhibited by apomorphine (APO), cells that had been treated with each molecule for the indicated time were separated into cytoplasmic and membrane fractions and analyzed through non-reducing or reducing sodium dodecyl sulfate-polyacrylamide gel electrophoresis (SDS-PAGE), and then investigated with specific antibodies (Experimental Method 1-6). […]

With `CN1CCc2cccc3c2[C@H]1Cc1ccc(O)c(O)c1-3` [APO, apomorphine] the “distribution of Flag-MLKL signals” value [1] was “mostly distributed in the cytoplasm” and the “intensities of the tetramer and octamer bands of MLKL” value (MLKL oligomerization) was “decreased”.
